Test results from US9657013B2, “Inhibitors of hepatitis B virus covalently closed circular DNA formation and their method of use” (priority 2012, dated 2017).

What was measured:
Format in all cases: cell-based, hepatitis B virus
HBV RNA and core DNA = assay: viral RNA and core DNA in HepDES19 cells (Northern/Southern blot); details: for reduction of viral RNA and DNA replicative intermediates: day 12, high concentrations; for steady state levels of HBV RNA and core DNA: early time point (day 4) of treatment
Source text: (§1) Viral nucleic acid analysis: Total cellular RNA was extracted with TRIzol reagent (Invitrogen, Grand Island, N.Y.) by following manufacturer's directions. Ten microgram of total cellular RNA was resolved in 1.5% agarose gel containing 2.2 M formaldehyde and transferred onto Hybond-XL membrane (GE Healthcare, Piscataway, N.J.) in 20×SSC buffer. Intracellular hepadnaviral core DNA and cccDNA (Hirt DNA) were extracted as described previously (Guo, H., D. Jiang, T. Zhou, A. Cuconati, T. M. Block, and J. T. Guo. 2007. Guo, H., D. Jiang, T. Zhou, A. Cuconati, T. M. Block, and J. T. Guo. 2007. Guo, H., R. Mao, T. M. Block, and J. T. Guo. 2010. Guo, H., W. S. Mason, C. E. Aldrich, J. R. Saputelli, D. S. Miller, A. R. Jilbert, and J. E. Newbold. 2005). Half of the DNA samples recovered from one well of a 6-well-plate were resolved by electrophoresis into a 1.2% agarose gel and blotted onto Hybond-XL membrane. Membranes were probed with either an α-^32P-UTP (800 Ci/mmol, Perkin Elmer) labeled hepadnaviral minus (detecting DNA) or plus strand (detecting RNA) specific full-length riboprobe and exposed to a phosphorimager screen (Fuji Film, Tokyo, Japan). Hybridization signals were visualized by Typhoon FLA-7000 (GE Healthcare) and quantified with ImageQuantTL software (GE Healthcare).
Identification of compounds that inhibits cccDNA accumulation in HepDES19 cells: Compounds were tested on HepDES19 cells, which have a higher level of cccDNA production than HepDE19 cells (Guo, H., D. Jiang, T. Zhou, A. Cuconati, T. M. Block, and J. T. Guo. 2007). Briefly, after withdrawal of tetracycline, HepDES19 cells were left untreated, or were treated with compound at serial concentrations; tetracycline-free media was changed every other day with fresh compound supplementation. The concentration of DMSO in all experimental groups was normalized at 0.1%. […] Shorter exposure of the Hirt DNA blot was used for the quantitative determination of DP-rcDNA signals. […] The reduction between DP-rcDNA and cccDNA was proportional compared with untreated control. […] Liu, C. P. Hu, and C. Chang. 2005. Guo, H., T. Zhou, D. Jiang, A. Cuconati, G. H. Xiao, T. M. Block, and J. T. Guo. 2007. Zhou, T., H. Guo, J. T. Guo, A. Cuconati, A. Mehta, and T. M. Block. 2006).

HBV cccDNA = assay: cccDNA inhibition assay (Southern blot of Hirt DNA); details: for levels of HBV cccDNA and DP-rcDNA in cell cultures / EC50: HepDES19 cells; for levels of HBV cccDNA and DP-rcDNA in cell cultures: day 12, figure legend; for EC50: 288 h, harvested at day 12, read-out: EC50 of reduction of cccDNA
Procedure: Cell cultures: HepG2.2.15 cells were maintained in DMEM/F12 medium (Mediatech, Manassas, Va.) supplemented with 10% fetal bovine serum, 100 U/ml penicillin and 100 μg/ml streptomycin, plus 400 μg/ml G418. Tetracycline inducible HBV producer cells, specifically HepDE19 and HepDES19 cells, were maintained in the same way as HepG2.2.15, but with the addition of 1 μg/ml tetracycline (Guo, H., D. Jiang, T. Zhou, A. Cuconati, T. M. Block, and J. T. Guo. 2007). To initiate HBV replication and cccDNA formation in HepDE19 and HepDES19 cells, tetracycline was withdrawn from the culture medium and the cells were cultured for the indicated time period.
as §1, with “Healthcare). […]” for “Healthcare).”
Identification of compounds that inhibits cccDNA accumulation in HepDES19 cells: Compounds were tested on HepDES19 cells, which have a higher level of cccDNA production than HepDE19 cells (Guo, H., D. Jiang, T. Zhou, A. Cuconati, T. M. Block, and J. T. Guo. 2007). Briefly, after withdrawal of tetracycline, HepDES19 cells were left untreated, or were treated with compound at serial concentrations; tetracycline-free media was changed every other day with fresh compound supplementation. The concentration of DMSO in all experimental groups was normalized at 0.1%. The cells were harvested at day 12, viral RNA (top panel), core DNA (middle panel), and Hirt DNA (DP-rcDNA and cccDNA) (bottom panels) were extracted and analyzed by Northern blot and Southern blot, respectively. Shorter exposure of the Hirt DNA blot was used for the quantitative determination of DP-rcDNA signals. […] The reduction between DP-rcDNA and cccDNA was proportional compared with untreated control. […] Liu, C. P. Hu, and C. Chang. 2005. Guo, H., T. Zhou, D. Jiang, A. Cuconati, G. H. Xiao, T. M. Block, and J. T. Guo. 2007. Zhou, T., H. Guo, J. T. Guo, A. Cuconati, A. Mehta, and T. M. Block. 2006).

HBV Dp-rcDNA and cccDNA = assay: stability of HBV DP-rcDNA and cccDNA

Compound	reduction of viral RNA and DNA replicative intermediates (HBV RNA and core DNA)	steady state levels of HBV RNA and core DNA (HBV RNA and core DNA)	levels of HBV cccDNA and DP-rcDNA in cell cultures (HBV cccDNA)	EC50 (HBV cccDNA; Hepatitis B virus) [µM]	inhibition at 0.3 µM (HBV cccDNA; Hepatitis B virus, Concentration 0.3 μM, read-out: cccDNA inhibition % Reduction) [%]	inhibition at 1 µM (HBV cccDNA; Hepatitis B virus, Concentration 1 μM, read-out: cccDNA inhibition % Reduction) [%]	inhibition at 3 µM (HBV cccDNA; Hepatitis B virus, Concentration 3 μM, read-out: cccDNA inhibition % Reduction) [%]	stability of HBV Dp-rcDNA and cccDNA (HBV Dp-rcDNA and cccDNA)	cccDNA inhibition % Reduction (HBV cccDNA; Concentration 1 μM, 1 µM) [%]	cccDNA inhibition % Reduction (HBV cccDNA; Concentration 3 μM, 3 µM) [%]	cccDNA inhibition % Reduction (HBV cccDNA; Concentration 10 μM, 10 µM) [%]
Cc1nc2cc(NC(=O)c3ccc(S(=O)(=O)N(C)Cc4ccccc4)cc3)ccc2s1 [CCC-0346, 4-(Benzyl-methyl-sulfamoyl)-N-(2-methyl-benzothiazol-5-yl)-benzamide]	slight reduction	did not reduce	reduces	3	20	30	60	did not alter	–	–	–
O=C(CN(c1cc(C(F)(F)F)ccc1Cl)S(=O)(=O)c1ccccc1)NCc1ccncc1 [CCC-0975, 2-[Benzenesulfonyl-(2-chloro-5-trifluoromethyl-phenyl)-amino]-N-pyridin-4-ylmethyl-acetamide]	slight reduction	did not reduce	reduces	10	–	–	–	did not alter	10	20	70
